Assay results: ChEMBL document CHEMBL1127159, “Preparation and biological evaluation of -fluoromethyl--methylene--butyrolactone and -butyrolactam” (Bioorg Med Chem Lett, 1993)
Converted amounts (≈) assume the structure as drawn.

Experiments:
Type in all cases: functional, cell-based
T-24 = assay: The compound was evaluated for antitumoral activity against human cancer cell line T24 after 72 hr of incubation; details: T-24, 72 h
L1210/C = assay: The compound was evaluated for antitumoral activity against mouse leukemia cell line L1210/c after 72 hr of incubation; details: L1210, 72 h
SK-MEL-28 = assay: The compound was evaluated for antitumoral activity against human melanoma cell line P36 after 72 hr of incubation; details: SK-MEL-28, 72 h
SW480 = assay: The compound was evaluated for antitumoral activity against human cancer cell line SW480 after 72 hr of incubation; details: SW480, 72 h
CCRF-CEM = assay: The compound was evaluated for antitumoral activity against human leukemia cell line CCRF CEM after 72 hr of incubation

| Structure (SMILES) | IC50 (T-24) [µg/mL] | IC50 (L1210/C) [µg/mL] | IC50 (SK-MEL-28) [µg/mL] | IC50 (SW480) [µg/mL] | IC50 (CCRF-CEM) [µg/mL] |
| --- | --- | --- | --- | --- | --- |
| C=C1CC(C(F)F)OC1=O (stereo not given) | 0.5 (≈ 3.38 µM) | 3 (≈ 20.3 µM) | 2 (≈ 13.5 µM) | 4 (≈ 27 µM) | 4 (≈ 27 µM) |
| O=c1[nH]cc(F)c(=O)[nH]1 [FLUOROURACIL] | 6 (≈ 46.1 µM) | 0.2 (≈ 1.54 µM) | 11 (≈ 84.6 µM) | 6 (≈ 46.1 µM) | 4 (≈ 30.8 µM) |
